Eight compounds from patent US8541407B2 (ArQule, Inc., priority 2010, dated 2013) can be followed below.

In general, IC50 refers to the concentration that inhibits the measured activity by half.

Structures are written as SMILES.

The target of this assay is AKT1 (Homo sapiens (Human), UniProt P31749). The experiment in a line: Inactive Akt HTRF Assay (AKT1). The conditions noted are these: *labeled: Akt HTFR assay; read-out: AKT1 biochemical assay, IC50. The protocol: AKT1 activity was assayed using CisBio KinEASE™ HTRF Assay technology. This technology utilizes a proprietary biotinylated peptide substrate (STKS3), streptavidin labeled XL665 antibody, and STK antibody-Eu^3+-cryptate. AKT1 activation was achieved by the addition of the activating kinases PDK1 and MAPKAPK2, lipid vesicles, and ATP. The extent of STKS3 biotinylated peptide phosphorylation was determined using a phospho-STK antibody-Eu^3+-cryptate and streptavidin labeled XL665 antibody. XL665 was stimulated by Eu^3+-cryptate resulting in a TR-FRET signal proportional to the STKS3 phosphorylation level.
AKT1, sequence (P31749 whole entry): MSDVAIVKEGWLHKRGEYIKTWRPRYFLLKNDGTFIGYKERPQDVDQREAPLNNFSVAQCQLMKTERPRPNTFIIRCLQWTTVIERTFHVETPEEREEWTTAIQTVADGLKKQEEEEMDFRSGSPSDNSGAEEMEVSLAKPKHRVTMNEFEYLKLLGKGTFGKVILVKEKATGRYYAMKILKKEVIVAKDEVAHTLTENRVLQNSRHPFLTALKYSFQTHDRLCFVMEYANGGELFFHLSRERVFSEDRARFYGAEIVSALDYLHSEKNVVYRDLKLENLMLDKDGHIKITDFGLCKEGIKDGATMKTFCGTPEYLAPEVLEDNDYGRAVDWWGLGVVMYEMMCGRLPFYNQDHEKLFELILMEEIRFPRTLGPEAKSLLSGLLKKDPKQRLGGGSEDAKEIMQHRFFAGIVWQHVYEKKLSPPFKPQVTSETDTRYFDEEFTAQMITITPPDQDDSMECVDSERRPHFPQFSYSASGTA
Representative compounds of the invention and controls ((S)-1-((5-(3-methyl-1H-indazol-5-yl)pyridin-3-yl)oxy)-3-phenylpropan-2-amine, 1-(1-(4-(7-phenyl-1H-imidazo[4,5-g]quinoxalin-6-yl)benzyl)piperidin-4-yl)-1H-benzo[d]imidazol-2(3H)-one, and 8-(4-(1-aminocyclobutyl)phenyl)-9-phenyl-[1,2,4]triazolo[3,4-f][1,6]naphthyridin-3(2H)-one) were prepared in 10% DMSO at 10-fold the desired final concentration, and added to each well of a reaction plate (Corning 96-well half-area solid black nonbinding surface plate) in a volume of 2.5 μL. […] After a 20 minute pre-incubation at room temperature, the kinase reaction was initiated by the addition of 5 μL of an activation mixture diluted in assay buffer containing biotinylated STKS3, PDK1, MAPKAPK2, DOPS/DOPC, PtdIns(3,4,5)P3, and ATP for final concentrations of 150 nM biotinylated STKS3, 1 nM (AKT1), 2.5 nM (AKT2), or 0.4 nM (AKT3) PDK1, 0.8 nM (AKT1), 2 nM (AKT2), or 0.3 nM (AKT3) MK2, 5.5 μM DOPS, 5.5 μM DOPC, 0.5 μM PtdIns(3,4,5)P3, and 50 μM ATP. The plates were incubated for 30 minutes at room temperature, and then stopped by the addition of 25 μL HTRF Detection Buffer containing phospho-STK antibody-Eu^3+-cryptate and streptavidin labeled XL665 antibody, at dilutions of 1:192 and 1:500 respectively. Final assay dilutions of phospho-STK antibody-Eu^3+-cryptate and streptavidin labeled XL665 antibody were 1:384 and 1:1,000 respectively. Assay plates were incubated for 60 minutes at room temperature, and the plates were read on a Perkin Elmer Envision Multilabel plate reader (excitation: 320 nm, emission I: 665 nm, emission II: 615 nm).
On the technique in general: In TR-FRET formats the signal depends on donor and acceptor labels being close together.
For `CC(C)(C)OC(=O)N1CCN(C(=O)c2ccc(-c3nnc4n3-c3cccnc3Nc3ccccc3-4)cc2)CC1` [Example 208, tert-butyl 4-(4-(9H-benzo[f]pyrido[2,3-b][1,2,4]triazolo[4,3-d][1,4]diazepin-3-yl)benzoyl)piperazine-1-carboxylate], the concentration for half-maximal inhibition (IC50) stood at 41 µM.
Take `NCCc1ccc(-c2nnc3n2-c2cccnc2Nc2ccccc2-3)cc1` [Example 214, 2-(4-(9H-benzo[f]pyrido[2,3-b][1,2,4]triazolo[4,3-d][1,4]diazepin-3-yl)phenyl)ethanamine]: the IC50 was determined as 14 µM.
Consider `CC(C)(C)OC(=O)NCCc1ccc(-c2nnc3n2-c2cccnc2Nc2ccccc2-3)cc1` [Example 212, tert-butyl 4-(9H-benzo[f]pyrido[2,3-b][1,2,4]triazolo[4,3-d][1,4]diazepin-3-yl)phenethylcarbamate], for which the half-maximal inhibitory concentration (IC50) came to 4.3 µM.
The same measure for `COc1cccc(C(=O)NC2CCN(Cc3ccc(-c4nnc5n4-c4cccnc4Nc4ccccc4-5)cc3)CC2)c1` [Example 215, N-(1-(4-(9H-benzo[f]pyrido[2,3-b][1,2,4]triazolo[4,3-d][1,4]diazepin-3-yl)benzyl)piperidin-4-yl)-3-methoxybenzamide]: 7.6 µM.
With `O=C(c1ccc(-c2nnc3n2-c2cccnc2Nc2ccccc2-3)cc1)N1CCNCC1` [Example 209, (4-(9H-benzo[f]pyrido[2,3-b][1,2,4]triazolo[4,3-d][1,4]diazepin-3-yl)phenyl)(piperazin-1-yl)methanone], the IC50 turned out to be 17 µM.
For the compound `NC1CCN(C(=O)c2ccc(-c3nnc4n3-c3cccnc3Nc3ccccc3-4)cc2)CC1` [Example 211, (4-(9H-benzo[f]pyrido[2,3-b][1,2,4]triazolo[4,3-d][1,4]diazepin-3-yl)phenyl)(4-aminopiperidin-1-yl)methanone], the IC50 came to 70 µM.
Turning to `CC(C)(C)OC(=O)NC1CCN(C(=O)c2ccc(-c3nnc4n3-c3cccnc3Nc3ccccc3-4)cc2)CC1` [Example 210, tert-butyl (1-(4-(9H-benzo[f]pyrido[2,3-b][1,2,4]triazolo[4,3-d][1,4]diazepin-3-yl)benzoyl)piperidin-4-yl)carbamate], the IC50 came to 56 µM.
In the case of `CC(C)(C)OC(=O)NCc1ccc(-c2nnc3n2-c2cccnc2Nc2ccccc2-3)cc1` [Example 213, tert-butyl 4-(9H-benzo[f]pyrido[2,3-b][1,2,4]triazolo[4,3-d][1,4]diazepin-3-yl)benzylcarbamate], the 50% inhibitory concentration (IC50) came out at 14 µM.
